Assays:
Human myoblasts = assay: Expression array of the innate immune response to lentiviral infection versus uninfected cells; assay type: cell-based
Procedure: RNA was harvested from the lenti-viral infected cells and uninfected control cells at 24 hours after infection.

[1] = test system: Cultured human muscle cells (54-1); assay: Conditioned media from lenti-DUX4-fl cells on lenti-GFP transduced cells, RT-PCR of IFIH1 and DEFB103A/B; assay type: cell-based
Procedure: It was determined that DEFB103A (SEQ ID NO:49) and DEFB103B (SEQ ID NO:107), each encoding the polypeptide DEFB103A/B set forth as SEQ ID NO:178, are both activated by lenti-DUX4-fl and not by lenti-DUX4-s or lenti-GFP. These represent transcripts from a duplicated beta-defensin 3 gene, which can function as a suppressor of inflammation. As a secreted protein, DEFB103A/B (SEQ ID NO:178) has the potential to suppress the innate immune response in cells infected with lenti-GFP. As an initial step toward testing this, the inventors transduced cells with lenti-DUX4-fl or nothing for 12 hrs, washed extensively and replaced the culture media, then after an additional 12 hrs transferred the conditioned media to cells infected 24 hrs earlier with lenti-GFP.
Cultured human muscle cells (54-1) were transduced with nothing (first lane panels A and B), lenti-DUX4-fl @ approximately MOI=10 (lane 2), lenti-DUX4-fl MOI ˜1 (lane 3), lenti-GFP MOI ˜10 (lane 4), lenti-GFP transduced cells exposed to conditioned media from lane 2 cells (lane 5), lenti-GFP transduced cells exposed to conditioned media from lane 3 cells (lane 6), lenti-GFP transduced cells exposed to media from lane 5 cells that was filtered through a 35 kD cut-off filter. The conditioned media from the lenti-DUX4 transduced cells suppresses the IFIH1 induction by lenti-GFP (Panel A).

[2] = test system: cultured human skeletal muscle cells; conditions: cited from earlier work

DUX4-fl: full-length DUX4 protein (SEQ ID NO:110), expressed from lentiviral or pCS2 vectors or in vitro translated
IFITM3 expression ratio vs NoLenti (.fc) (Human myoblasts; gene IFITM3 NM_021034.2, vs uninfected, 24 hours after infection): −0.01 log2 fold change | IL1R1 expression ratio vs GFP (.fc) (Human myoblasts; gene IL1R1 NM_000877.2, vs lenti-GFP, 24 hours after infection): −1.34 log2 fold change | IL1R1 expression ratio vs NoLenti (.fc) (Human myoblasts; gene IL1R1 NM_000877.2, vs uninfected, 24 hours after infection): 0.09 log2 fold change | IL7R expression ratio vs GFP (.fc) (Human myoblasts; gene IL7R NM_002185.2, vs lenti-GFP, 24 hours after infection): −2.26 log2 fold change | IL7R expression ratio vs NoLenti (.fc) (Human myoblasts; gene IL7R NM_002185.2, vs uninfected, 24 hours after infection): −0.49 log2 fold change | IL8 expression ratio vs GFP (.fc) (Human myoblasts; gene IL8 NM_000584.2, vs lenti-GFP, 24 hours after infection): −3.88 log2 fold change | IL8 expression ratio vs NoLenti (.fc) (Human myoblasts; gene IL8 NM_000584.2, vs uninfected, 24 hours after infection): −0.13 log2 fold change | IL18BP expression ratio vs GFP (.fc) (Human myoblasts; gene IL18BP NM_173042.2, vs lenti-GFP, 24 hours after infection): −1.25 log2 fold change | IL18BP expression ratio vs NoLenti (.fc) (Human myoblasts; gene IL18BP NM_173042.2, vs uninfected, 24 hours after infection): 0.85 log2 fold change | IRF7 expression ratio vs GFP (.fc) (Human myoblasts; gene IRF7 NM_004029.2, vs lenti-GFP, 24 hours after infection): −1.96 log2 fold change | IRF7 expression ratio vs NoLenti (.fc) (Human myoblasts; gene IRF7 NM_004029.2, vs uninfected, 24 hours after infection): 1.02 log2 fold change | IRF9 expression ratio vs GFP (.fc) (Human myoblasts; gene IRF9 NM_006084.4, vs lenti-GFP, 24 hours after infection): −2.25 log2 fold change | IRF9 expression ratio vs NoLenti (.fc) (Human myoblasts; gene IRF9 NM_006084.4, vs uninfected, 24 hours after infection): 0.20 log2 fold change | MX1 expression ratio vs GFP (.fc) (Human myoblasts; gene MX1 NM_002462.2, vs lenti-GFP, 24 hours after infection): −5.67 log2 fold change | MX1 expression ratio vs NoLenti (.fc) (Human myoblasts; gene MX1 NM_002462.2, vs uninfected, 24 hours after infection): 1.58 log2 fold change | NFIL3 expression ratio vs GFP (.fc) (Human myoblasts; gene NFIL3 NM_005384.2, vs lenti-GFP, 24 hours after infection): −1.82 log2 fold change | NFIL3 expression ratio vs NoLenti (.fc) (Human myoblasts; gene NFIL3 NM_005384.2, vs uninfected, 24 hours after infection): 0.07 log2 fold change | NFKBIA expression ratio vs GFP (.fc) (Human myoblasts; gene NFKBIA NM_020529.1, vs lenti-GFP, 24 hours after infection): −3.00 log2 fold change | NFKBIA expression ratio vs NoLenti (.fc) (Human myoblasts; gene NFKBIA NM_020529.1, vs uninfected, 24 hours after infection): −0.83 log2 fold change | NFKBIZ expression ratio vs GFP (.fc) (Human myoblasts; gene NFKBIZ NM_001005474.1, vs lenti-GFP, 24 hours after infection): −1.57 log2 fold change | NFKBIZ expression ratio vs NoLenti (.fc) (Human myoblasts; gene NFKBIZ NM_001005474.1, vs uninfected, 24 hours after infection): 0.30 log2 fold change | STAT1 expression ratio vs GFP (.fc) (Human myoblasts; gene STAT1 NM_007315.2, vs lenti-GFP, 24 hours after infection): −2.92 log2 fold change | STAT1 expression ratio vs NoLenti (.fc) (Human myoblasts; gene STAT1 NM_007315.2, vs uninfected, 24 hours after infection): 1.08 log2 fold change | STAT2 expression ratio vs GFP (.fc) (Human myoblasts; gene STAT2 NM_005419.2, vs lenti-GFP, 24 hours after infection): −2.69 log2 fold change | STAT2 expression ratio vs NoLenti (.fc) (Human myoblasts; gene STAT2 NM_005419.2, vs uninfected, 24 hours after infection): −0.77 log2 fold change | TLR3 expression ratio vs GFP (.fc) (Human myoblasts; gene TLR3 NM_003265.2, vs lenti-GFP, 24 hours after infection): −1.27 log2 fold change | TLR3 expression ratio vs NoLenti (.fc) (Human myoblasts; gene TLR3 NM_003265.2, vs uninfected, 24 hours after infection): −0.06 log2 fold change | TNFAIP2 expression ratio vs GFP (.fc) (Human myoblasts; gene TNFAIP2 NM_006291.2, vs lenti-GFP, 24 hours after infection): −1.59 log2 fold change | TNFAIP2 expression ratio vs NoLenti (.fc) (Human myoblasts; gene TNFAIP2 NM_006291.2, vs uninfected, 24 hours after infection): −0.42 log2 fold change | TNFAIP3 expression ratio vs GFP (.fc) (Human myoblasts; gene TNFAIP3 NM_006290.2, vs lenti-GFP, 24 hours after infection): −2.90 log2 fold change | TNFAIP3 expression ratio vs NoLenti (.fc) (Human myoblasts; gene TNFAIP3 NM_006290.2, vs uninfected, 24 hours after infection): −0.38 log2 fold change | TNFAIP6 expression ratio vs GFP (.fc) (Human myoblasts; gene TNFAIP6 NM_007115.2, vs lenti-GFP, 24 hours after infection): −2.21 log2 fold change | TNFAIP6 expression ratio vs NoLenti (.fc) (Human myoblasts; gene TNFAIP6 NM_007115.2, vs uninfected, 24 hours after infection): 1.63 log2 fold change | TNFRSF6B expression ratio vs GFP (.fc) (Human myoblasts; gene TNFRSF6B NM_032945.2, vs lenti-GFP, 24 hours after infection): −1.68 log2 fold change | TNFRSF6B expression ratio vs NoLenti (.fc) (Human myoblasts; gene TNFRSF6B NM_032945.2, vs uninfected, 24 hours after infection): −0.29 log2 fold change | TNFRSF10A expression ratio vs GFP (.fc) (Human myoblasts; gene TNFRSF10A NM_003844.2, vs lenti-GFP, 24 hours after infection): −1.13 log2 fold change | TNFRSF10A expression ratio vs NoLenti (.fc) (Human myoblasts; gene TNFRSF10A NM_003844.2, vs uninfected, 24 hours after infection): 0.07 log2 fold change | TNFRSF14 expression ratio vs GFP (.fc) (Human myoblasts; gene TNFRSF14 NM_003820.2, vs lenti-GFP, 24 hours after infection): −2.72 log2 fold change | TNFRSF14 expression ratio vs NoLenti (.fc) (Human myoblasts; gene TNFRSF14 NM_003820.2, vs uninfected, 24 hours after infection): −1.36 log2 fold change | TNFSF10 expression ratio vs GFP (.fc) (Human myoblasts; gene TNFSF10 NM_003810.2, vs lenti-GFP, 24 hours after infection): −1.13 log2 fold change | TNFSF10 expression ratio vs NoLenti (.fc) (Human myoblasts; gene TNFSF10 NM_003810.2, vs uninfected, 24 hours after infection): 0.14 log2 fold change | TNFSF13B expression ratio vs GFP (.fc) (Human myoblasts; gene TNFSF13B NM_006573.3, vs lenti-GFP, 24 hours after infection): −1.76 log2 fold change | TNFSF13B expression ratio vs NoLenti (.fc) (Human myoblasts; gene TNFSF13B NM_006573.3, vs uninfected, 24 hours after infection): 0.12 log2 fold change | number of lentivirus-induced genes whose induction is suppressed (Human myoblasts; out of 341): 317 genes | number of the 341 lenti-GFP induced genes induced 2-fold or more (Human myoblasts; vs uninfected cells, 24 hours): 34 genes | expression of DEFB103A/B ([1]; RT-PCR): induces expression of DEFB103A/B | activation of IFIH1 by the construct ([1]; qRT-PCR, no conditioned medium): did not | toxicity of forced over-expression [2]: toxic to cells, inducing apoptotic cell death
